Results as given in the PolyMetriX glass transition set.

glass transition temperature	Structure (SMILES)
254.00 °C	*C(=O)c1ccc2c(c1)C(=O)N(C1CCC(CC3CCC(N4C(=O)c5ccc(*)cc5C4=O)CC3)CC1)C2=O (repeat unit)
262.00 °C	*C(=S)Nc1ccc(Oc2ccc(NC(=S)N3C(=O)c4ccc(C(=O)c5ccc6c(c5)C(=O)N(*)C6=O)cc4C3=O)cc2)cc1 (repeat unit)
217.00 °C	*CC1CC2CC1C1CCC(CN3C(=O)c4ccc(C(=O)c5ccc6c(c5)C(=O)N(*)C6=O)cc4C3=O)C21 (repeat unit)
199.00 °C	*CC1CCCC(CN2C(=O)c3ccc(Oc4ccc5c(c4)C(=O)N(*)C5=O)cc3C2=O)C1 (repeat unit)
145.00 °C	*CCCCCCCCN1C(=O)c2ccc(Oc3ccc4c(c3)C(=O)N(*)C4=O)cc2C1=O (repeat unit)
110.00 °C	*CCCCCCCN1C(=O)c2ccc(Oc3ccc4c(c3)C(=O)N(*)C4=O)cc2C1=O (repeat unit)
112.00 °C	*CCCCCOc1ccc(OC(=O)c2ccc(C(=O)Oc3ccc(O*)cc3)cc2)cc1 (repeat unit)
137.00 °C	*Oc1cc(C(=O)c2ccccc2)c(Oc2ccc(*)cc2)cc1C(=O)c1ccccc1 (repeat unit)
128.00 °C	*Oc1ccc(OC(=O)c2cccc(Sc3ccc(OC(=O)c4ccc(C(=O)Oc5ccc(Sc6cccc(C(*)=O)c6)cc5)cc4)cc3)c2)cc1-c1ccccc1 (repeat unit)
105.00 °C	*Oc1ccc(Oc2ccc(/C=N/CCCC/N=C/c3ccc(*)cc3)cc2)cc1 (repeat unit)
108.00 °C	*Oc1ccc(Oc2ccc(/C=N/CCCCCCCCCC/N=C/c3ccc(*)cc3)cc2)cc1 (repeat unit)
118.00 °C	*Oc1ccc(Oc2ccc(/C=N/CCCCCCCCCCCC/N=C/c3ccc(*)cc3)cc2)cc1 (repeat unit)
117.00 °C	*Oc1ccc(Oc2ccc(/C=N/c3ccc(/N=C/c4ccc(*)cc4)cc3)cc2)cc1 (repeat unit)
118.00 °C	*Oc1ccc(Oc2ccc(OC(*)=O)cc2)cc1 (repeat unit)
215.00 °C	*Oc1ccc(Oc2ccc(OC(=O)c3ccc(C(c4ccc(C(*)=O)cc4)(C(F)(F)F)C(F)(F)F)cc3)cc2)cc1 (repeat unit)
104.00 °C	*Oc1ccc(Oc2ccc(OC(=O)c3cccc(Oc4ccc(Oc5cccc(C(*)=O)c5)cc4)c3)cc2)cc1 (repeat unit)
134.00 °C	*Oc1ccc(Oc2ccc(Oc3ccc(Oc4ccc(OC(=O)c5cccc(C(*)=O)c5)cc4)cc3)cc2)cc1 (repeat unit)
249.00 °C	*Oc1ccc(S(=O)(=O)c2ccc(OC(=O)c3cccc(C(*)=O)c3)cc2)cc1 (repeat unit)
346.00 °C	*Oc1ccc(Sc2ccc(Oc3ccc4c(=O)n5c6cc(Oc7ccc8c(c7)nc7c9ccc(*)c%10cccc(c(=O)n87)c%109)ccc6nc5c5cccc3c45)cc2)cc1 (repeat unit)
283.00 °C	*c1cc(Br)c(Oc2c(Br)cc(N3C(=O)c4ccc(Oc5ccc6c(c5)C(=O)N(*)C6=O)cc4C3=O)cc2Br)c(Br)c1 (repeat unit)

glass transition temperature	Structure (SMILES)
266.00 °C	*c1cc(C(c2ccc(O)c(N3C(=O)c4ccc(Oc5ccc6c(c5)C(=O)N(*)C6=O)cc4C3=O)c2)(C(F)(F)F)C(F)(F)F)ccc1O (repeat unit)
266.00 °C	*c1ccc(-c2ccc(N3C(=O)c4ccc(Oc5ccc(Oc6ccc7c(c6)C(=O)N(*)C7=O)cc5)cc4C3=O)cc2)cc1 (repeat unit)
257.00 °C	*c1ccc(-c2ccc(N3C(=O)c4ccc(Oc5ccc(Sc6ccc(Oc7ccc8c(c7)C(=O)N(*)C8=O)cc6)cc5)cc4C3=O)cc2)cc1 (repeat unit)
305.00 °C	*c1ccc(C(c2ccc(N3C(=O)c4ccc(Oc5ccc6c(c5)C(=O)N(*)C6=O)cc4C3=O)cc2)(C(F)(F)F)C(F)(F)F)cc1 (repeat unit)
293.00 °C	*c1ccc(C(c2ccccc2)(c2ccc(N3C(=O)c4ccc(Oc5ccc6c(c5)C(=O)N(*)C6=O)cc4C3=O)cc2)C(F)(F)F)cc1 (repeat unit)
238.00 °C	*c1ccc(N2C(=O)c3ccc(Oc4ccc(Sc5ccc(Oc6ccc7c(c6)C(=O)N(*)C7=O)cc5)cc4)cc3C2=O)cc1 (repeat unit)
215.00 °C	*c1ccc(Oc2ccc(N3C(=O)c4ccc(Oc5ccc(Oc6ccc(Oc7ccc8c(c7)C(=O)N(*)C8=O)cc6)cc5)cc4C3=O)cc2)cc1 (repeat unit)
267.00 °C	*c1ccc(Oc2ccc(N3C(=O)c4cccc(Oc5ccc(S(=O)(=O)c6ccc(Oc7cccc8c7C(=O)N(*)C8=O)cc6)cc5)c4C3=O)cc2)cc1 (repeat unit)
203.00 °C	*c1ccc(Oc2ccc(Oc3ccc(N4C(=O)c5ccc(Oc6ccc(Oc7ccc(Oc8ccc9c(c8)C(=O)N(*)C9=O)cc7)cc6)cc5C4=O)cc3)cc2)cc1 (repeat unit)
210.00 °C	*c1ccc(Oc2ccc(Oc3ccc(Oc4ccc(N5C(=O)c6ccc(Oc7ccc(Oc8ccc9c(c8)C(=O)N(*)C9=O)cc7)cc6C5=O)cc4)cc3)cc2)cc1 (repeat unit)
201.00 °C	*c1ccc(Oc2ccc(S(=O)(=O)c3ccc(Oc4ccc(N5C(=O)c6ccc(Oc7ccc(Oc8ccc9c(c8)C(=O)N(*)C9=O)cc7)cc6C5=O)cc4)cc3)cc2)cc1 (repeat unit)
194.00 °C	*c1ccc(Oc2ccc(Sc3ccc(Oc4ccc(N5C(=O)c6ccc(Oc7ccc(Oc8ccc(Oc9ccc%10c(c9)C(=O)N(*)C%10=O)cc8)cc7)cc6C5=O)cc4)cc3)cc2)cc1 (repeat unit)
230.00 °C	*c1ccc(Oc2cccc(Oc3ccc(N4C(=O)c5cccc(Oc6ccc(S(=O)(=O)c7ccc(Oc8cccc9c8C(=O)N(*)C9=O)cc7)cc6)c5C4=O)cc3)c2)cc1 (repeat unit)
227.00 °C	*c1cccc(N2C(=O)c3ccc(Oc4ccc(Oc5ccc(Oc6ccc7c(c6)C(=O)N(*)C7=O)cc5)cc4)cc3C2=O)c1 (repeat unit)
265.00 °C	*c1cccc(N2C(=O)c3ccc(Oc4ccc(S(=O)(=O)c5ccc(Oc6ccc7c(c6)C(=O)N(*)C7=O)cc5)cc4)cc3C2=O)c1 (repeat unit)
209.00 °C	*c1cccc(N2C(=O)c3ccc(Oc4ccc(Sc5ccc(Oc6ccc7c(c6)C(=O)N(*)C7=O)cc5)cc4)cc3C2=O)c1 (repeat unit)
238.00 °C	*c1cccc(N2C(=O)c3cccc(Oc4ccc(Oc5ccc(Oc6cccc7c6C(=O)N(*)C7=O)cc5)cc4)c3C2=O)c1 (repeat unit)
266.00 °C	*c1cccc(N2C(=O)c3cccc(Oc4ccc(S(=O)(=O)c5ccc(Oc6cccc7c6C(=O)N(*)C7=O)cc5)cc4)c3C2=O)c1 (repeat unit)
205.00 °C	*c1cccc(S(=O)(=O)c2cccc(N3C(=O)c4ccc(Oc5ccc(S(=O)(=O)c6ccc(Oc7ccc8c(c7)C(=O)N(*)C8=O)cc6)cc5)cc4C3=O)c2)c1 (repeat unit)

Structure (SMILES)	glass transition temperature
*OP(=O)(Oc1ccccc1)Oc1ccc(*)cc1 (repeat unit)	97.00 °C
*OS(=O)(=O)c1ccc(*)cc1 (repeat unit)	119.00 °C
*Oc1ccc(Oc2cccc(*)n2)cc1 (repeat unit)	100.00 °C
